# Read-outs that look alike come from different tables or passages of the source.
# Assays:
# CDK4/cyclin D3 = target: T1, CDK4/cyclin D3 (Homo sapiens, UniProt P11802); test: Human CDK4/cyclin D3 inhibitory activity (QS S Assist CDK4/Cyclin D3_FP Kit, IMAP fluorescence polarization); type: biochemical
# T1 construct: purchased Carna Biosciences, Inc. QS S Assist CDK4/Cyclin D3_FP Kit
# How it was run: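 IMAP fluorescence polarization kit: CDK4/cyclin D3 at 12.5-25 ng/well with kit ATP/substrate/metal mix in 20 mM HEPES pH 7.4, 0.01% Tween20, 2 mM DTT, 45 min at room temperature. FP read at 485/535 nm after 30 min binding; IC50 from dose-response fit of percent inhibition versus enzyme and no-enzyme controls.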
# CDK2/cyclin A2 = target: T2, CDK2/cyclin A2 (Homo sapiens, UniProt P24941); test: Human CDK2/cyclin A2 inhibitory activity (QS S Assist CDK2/Cyclin A2_FP Kit, IMAP fluorescence polarization); type: biochemical
# T2 construct: purchased Carna Biosciences, Inc. QS S Assist CDK2/Cyclin A2_FP Kit
# How it was run: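 Kinase activity read as fluorescence polarization (485/535 nm) after phosphorylated fluorescent substrate binds IMAP reagent (30 min, RT, dark). Enzyme (2.5 ng/well) reacted 60 min at RT with ATP/substrate/metal in HEPES pH 7.4 buffer with Tween 20 and DTT; no-enzyme wells define 0% activity; IC50 by curve fit.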
# [1] = 50% inhibitory concentration against CDK4/cyclin D3, given as class symbol
# [2] = 50% inhibitory concentration against CDK2/cyclin A2, given as class symbol
# [3] = Human CDK4/cyclin D3 inhibitory activity, read-out: CDK4 Activity symbol
# [4] = Human CDK2/cyclin A2 inhibitory activity, read-out: CDK2 Activity symbol
# T1 sequence (P11802 whole entry): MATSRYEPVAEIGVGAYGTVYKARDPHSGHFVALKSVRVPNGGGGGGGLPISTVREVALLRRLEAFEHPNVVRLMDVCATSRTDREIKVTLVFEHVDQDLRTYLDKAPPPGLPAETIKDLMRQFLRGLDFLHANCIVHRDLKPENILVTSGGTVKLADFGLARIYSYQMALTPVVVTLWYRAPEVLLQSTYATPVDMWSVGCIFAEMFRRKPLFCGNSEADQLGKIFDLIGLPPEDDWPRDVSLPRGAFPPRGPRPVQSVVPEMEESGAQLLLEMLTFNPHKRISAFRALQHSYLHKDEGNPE
# T1 sequence (P30281 whole entry partner): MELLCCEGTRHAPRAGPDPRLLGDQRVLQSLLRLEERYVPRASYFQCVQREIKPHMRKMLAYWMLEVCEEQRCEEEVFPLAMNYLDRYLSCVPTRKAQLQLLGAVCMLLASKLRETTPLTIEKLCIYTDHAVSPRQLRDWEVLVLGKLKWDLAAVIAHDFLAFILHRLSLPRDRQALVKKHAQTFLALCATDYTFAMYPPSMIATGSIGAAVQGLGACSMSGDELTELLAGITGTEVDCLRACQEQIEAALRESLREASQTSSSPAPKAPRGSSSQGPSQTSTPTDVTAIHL
SMILES,IC50 (CDK4/cyclin D3; [1]) [nM],IC50 (CDK2/cyclin A2; [2]) [nM],IC50 (CDK4/cyclin D3; [3]) [nM],IC50 (CDK2/cyclin A2; [4]) [nM]
CO[C@H](C)c1cc2cnc(Nc3ccc(OC4CCNCC4)cn3)nc2c(N[C@H]2CCCOC2)n1 [Compound 874],< 10,≥ 100,–,–
CC(C)Nc1nc(C(F)F)cc2cnc(Nc3ccc(OCCCO)cn3)nc12 [Compound 156],–,–,< 10,≥ 100
C[C@@H](O)c1cc2cnc(Nc3ccc(C4CCN(C(C)(C)C(=O)O)CC4)cn3)nc2c(NC(C)(C)C)n1 [Compound 834],< 10,≥ 100,–,–
CC(C)Nc1nc([C@@H](C)O)cc2cnc(Nc3ccc(N4CC[C@H](O)C4)nn3)nc12 [Compound 662],< 10,≥ 100,–,–
COC1CCC(Nc2nc([C@@H](C)O)cc3cnc(Nc4ccc(N5CCNCC5=O)cn4)nc23)CC1 (stereo partly shown) [Compound 650],< 10,≥ 100,–,–
CC(C)Nc1nc(C(F)F)cc2cnc(Nc3ccc(CN4CCNC5(CC5)C4)cn3)nc12 [Compound 175],–,–,< 10,10 to 100
CC(C)Nc1nc(C(F)F)cc2cnc(Nc3ccc(CN(C4CCOC4)S(C)(=O)=O)cn3)nc12 (stereo not shown) [Compound 162],–,–,10 to 100,≥ 100
CO[C@H](C)c1cc2cnc(Nc3ccc(N4CCN(C(C)C(=O)O)CC4=O)cn3)nc2c(NC(C)C)n1 (stereo partly shown) [Compound 897],10 to 100,≥ 100,–,–
CCCNc1nc([C@@H](C)OC)cc2cnc(Nc3ccc(CN4CCN(CCO)CC4)cn3)nc12 [Compound 852],< 10,≥ 100,–,–
CC(C)Nc1nc([C@@H](C)O)cc2cnc(Nc3ccc(N4CCN(CC(C)(C)O)CC4)nn3)nc12 [Compound 625],–,–,< 10,≥ 100
CC(C)Nc1nc([C@H](C)O)c(F)c2cnc(Nc3ccc(N4CCNCC4)cn3)nc12 [Compound 63],–,–,< 10,≥ 100
CC(C)Nc1nc([C@@H](C)O)cc2cnc(Nc3ccc(N4CCNC(C(C)C)C4=O)cn3)nc12 (stereo partly shown) [Compound 732],< 10,≥ 100,–,–
CO[C@H](C)c1cc2cnc(Nc3ccc(CN4CCNCC4)cn3)nc2c(NCC2CCOCC2)n1 [Compound 360],–,–,< 10,≥ 100
CC(C)Nc1nc(C(C)O)cc2cnc(Nc3ccc(CN4CCNCC4)cn3)nc12 (stereo not shown) [Compound 79],–,–,< 10,≥ 100
CCCN1CCN(Cc2ccc(Nc3ncc4cc([C@@H](C)O)nc(NC(C)(C)COC)c4n3)nc2)CC1 [Compound 243],–,–,< 10,≥ 100
CC(O)c1cc2cnc(Nc3ccc(N4CCNCC4)cn3)nc2c(NC(C)(C)C)n1 (stereo not shown) [Compound 24],–,–,< 10,≥ 100
CC(C)Nc1nc(C(F)F)cc2cnc(Nc3ccc(OCC(C)(C)CO)cn3)nc12 [Compound 122],–,–,10 to 100,≥ 100
CC(O)c1cc2cnc(Nc3ccc(N4CCNCC4)cn3)nc2c(NC(C)c2ccccc2)n1 (stereo not shown) [Compound 70],–,–,< 10,≥ 100
Cc1nc(Nc2ncc3c(Cl)c([C@@H](C)O)nc(NC(C)C)c3n2)ccc1N1CCNCC1=O [Compound 815],< 10,≥ 100,–,–
CC(C)Nc1nc([C@@H](C)O)cc2cnc(Nc3ccc(N4CCN(C(=O)CN(C)C)CC4)nn3)nc12 [Compound 1191],< 10,≥ 100,–,–
CC(C)Nc1nc([C@@H](C)O)cc2cnc(Nc3ccc(N4CC5(CCN5)C4)nn3)nc12 [Compound 573],–,–,< 10,≥ 100
O=C1CNCCN1c1ccc(Nc2ncc3cc(C(F)F)nc(NC4CCOCC4)c3n2)nc1 [Compound 822],< 10,10 to 100,–,–
O=C(O)C1CCN(Cc2ccc(Nc3ncc4cc(C(F)F)nc(NC5CCC5)c4n3)nc2)CC1 [Compound 1099],< 10,≥ 100,–,–
C[C@@H](O)c1cc2cnc(Nc3ccc(CN4CCNCC4)cn3)nc2c(N[C@H]2CC[C@H](O)CC2)n1 [Compound 344],–,–,< 10,≥ 100
CCCNc1nc(C(C)=O)cc2cnc(Nc3ccc(CN4CCN(CCO)CC4)cn3)nc12 [Compound 974],10 to 100,≥ 100,–,–

SMILES,IC50 (CDK4/cyclin D3; [1]) [nM],IC50 (CDK2/cyclin A2; [2]) [nM],IC50 (CDK4/cyclin D3; [3]) [nM],IC50 (CDK2/cyclin A2; [4]) [nM]
CCNc1nc([C@@H](C)O)c(F)c2cnc(Nc3ccc(CN4CCN(CCO)CC4)cn3)nc12 [Compound 1202],< 10,≥ 100,–,–
CO[C@H](C)c1cc2cnc(Nc3ccc(CN4CCN(CCO)CC4)cn3)nc2c(N[C@H]2CC[C@H](O)CC2)n1 [Compound 917],< 10,≥ 100,–,–
CC(C)Nc1nc(C(F)F)cc2cnc(Nc3ccc(-c4cn[nH]c4)cn3)nc12 [Compound 209],–,–,10 to 100,≥ 100
CC(C)Nc1nc(C2CCOC2)cc2cnc(Nc3ccc(CN4CCN(CC#N)CC4)cn3)nc12 (stereo not shown) [Compound 1012],< 10,≥ 100,–,–
CCCNc1nc(C2(C)COC2)cc2cnc(Nc3ccc(CN4CCNCC4)cn3)nc12 [Compound 1003],< 10,≥ 100,–,–
CC(C)Nc1nc([C@@H](C)O)cc2cnc(Nc3ccc(N4C(=O)CNCC4C)cn3)nc12 (stereo partly shown) [Compound 1033],< 10,≥ 100,–,–
CC(C)Nc1nc([C@@H](C)O)cc2cnc(Nc3ccc4c(n3)CNC4)nc12 [Compound 695],< 10,≥ 100,–,–
COC1CCC(Nc2nc([C@@H](C)O)cc3cnc(Nc4ccc(N5CCN(C)CC5)nn4)nc23)CC1 (stereo partly shown) [Compound 641],< 10,≥ 100,–,–
CC(O)CN1CCN(c2ccc(Nc3ncc4cc([C@@H](C)O)nc(NC(C)C)c4n3)nc2)C(=O)C1 (stereo partly shown) [Compound 636],< 10,≥ 100,–,–
CC(C)Nc1nc([C@@H](C)O)cc2cnc(Nc3ccc(N4CCN5CCCC5C4=O)cn3)nc12 (stereo partly shown) [Compound 642],< 10,≥ 100,–,–
CC(C)Nc1nc(C(F)F)cc2cnc(Nc3ccc(CCC(C)(C)O)cn3)nc12 [Compound 154],–,–,< 10,≥ 100
CC(C)CNc1nc([C@@H](C)O)cc2cnc(Nc3ccc(N4CCNCC4=O)cn3)nc12 [Compound 826],< 10,≥ 100,–,–
CO[C@H](C)c1cc2cnc(Nc3ccc(N4CCN(CC#N)CC4)nn3)nc2c(NC(C)C)n1 [Compound 906],10 to 100,≥ 100,–,–
C[C@@H](O)c1cc2cnc(Nc3ccc(N4CCNCC4)nn3)nc2c(N[C@H]2CC[C@H](C(=O)O)CC2)n1 [Compound 338],–,–,< 10,≥ 100
CC(C)Nc1nc([C@@H](C)O)cc2cnc(Nc3ccc(C4CCN(CC(=O)O)CC4)cn3)nc12 [Compound 829],< 10,≥ 100,–,–
CO[C@H](C)c1cc2cnc(Nc3ccc(N4CCCC(C(=O)O)C4)cn3)nc2c(NC(C)C)n1 (stereo partly shown) [Compound 893],10 to 100,≥ 100,–,–
C[C@@H](O)c1cc2cnc(Nc3ccc(N4CCNCC4=O)cn3)nc2c(NC2CCC(C)(C)CC2)n1 [Compound 658],< 10,≥ 100,–,–
C[C@@H](O)c1cc2cnc(Nc3ccc(N4CCN(C)CC4)nn3)nc2c(N[C@H]2CCCOC2)n1 [Compound 640],< 10,≥ 100,–,–
"c1cc(Nc2ncc3cc(C4CCOC4)nc(N[C@H]4CCCOC4)c3n2)ncc1CN1CCNCC1 (single isomer, unassigned) [Compound 940]",< 10,≥ 100,–,–
CO[C@H](C)c1cc2cnc(Nc3ccc(N4CCNCC4)nn3)nc2c(NC2CCC(C)(C)OC2)n1 (stereo partly shown) [Compound 727],< 10,≥ 100,–,–
CCCNc1nc(C2CCOC2)cc2cnc(Nc3ccc(N4CCNCC4)cn3)nc12 (stereo not shown) [Compound 1004],< 10,≥ 100,–,–
CO[C@H](C)c1cc2cnc(Nc3ccc(C4CCN(C(C)=O)CC4)cn3)nc2c(NC(C)C)n1 [Compound 224],–,–,< 10,≥ 100
C[C@@H](O)c1nc(NC2CCOCC2)c2nc(Nc3ccc(N4CCNCC4)nn3)ncc2c1Cl [Compound 337],–,–,< 10,≥ 100
CC(C)Nc1nc(C2CCOC2)cc2cnc(Nc3ccc(CN4CCN(CCO)CC4)cn3)nc12 (stereo not shown) [Compound 1010],< 10,≥ 100,–,–
CC(C)Nc1nc(C(F)F)cc2cnc(Nc3ccc(CC(N)=O)cn3)nc12 [Compound 132],–,–,< 10,10 to 100

# Reference: patent publication US10124004B2, “Pyrido[3,4-d]pyrimidine derivative and pharmaceutically acceptable salt thereof” (Teijin Pharma Limited, priority 2015, dated 2018)
